# Measurements taken from article PMC3729039 (Molecular cancer therapeutics, 2013).
# How the values were obtained:
# [1] = target: T1, full-length human glucocorticoid receptor (GR) (Homo sapiens, UniProt P04150); experiment: GR transcriptional activity, GRE reporter in LNCaP cells; settings: 10 µM, 10 nM dexamethasone, 48 hours
# T1 sequence (P04150 1-777): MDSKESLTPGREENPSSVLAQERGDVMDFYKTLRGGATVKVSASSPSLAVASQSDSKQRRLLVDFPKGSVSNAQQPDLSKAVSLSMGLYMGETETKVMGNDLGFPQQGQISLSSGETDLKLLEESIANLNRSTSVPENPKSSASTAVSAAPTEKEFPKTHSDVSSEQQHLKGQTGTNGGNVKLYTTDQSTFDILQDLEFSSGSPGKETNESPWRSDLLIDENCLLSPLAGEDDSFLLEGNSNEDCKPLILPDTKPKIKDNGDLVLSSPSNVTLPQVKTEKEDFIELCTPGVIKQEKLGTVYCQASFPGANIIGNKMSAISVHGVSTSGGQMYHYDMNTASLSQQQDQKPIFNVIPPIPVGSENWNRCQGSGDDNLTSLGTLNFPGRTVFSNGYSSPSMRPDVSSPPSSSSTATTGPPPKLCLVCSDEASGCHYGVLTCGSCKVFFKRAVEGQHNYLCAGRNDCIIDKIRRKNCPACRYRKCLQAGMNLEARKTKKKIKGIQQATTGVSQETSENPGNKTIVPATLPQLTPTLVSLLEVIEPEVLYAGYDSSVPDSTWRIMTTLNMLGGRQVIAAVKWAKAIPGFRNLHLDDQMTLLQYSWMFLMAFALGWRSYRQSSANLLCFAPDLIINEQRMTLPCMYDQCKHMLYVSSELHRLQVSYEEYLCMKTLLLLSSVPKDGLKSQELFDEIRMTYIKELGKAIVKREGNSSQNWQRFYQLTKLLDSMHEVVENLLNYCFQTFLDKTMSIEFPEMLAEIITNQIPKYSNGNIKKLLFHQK
# VCaP cells = experiment: Viability assay, VCaP; assay type: cell-based; settings: VCaP (wild-type AR), treated for 5 days
# LNCaP95 cells = experiment: LNCaP95 cell growth/viability
# PC3 cells = experiment: Viability assay, PC3; assay type: cell-based, human; settings: PC3, treated for 3 days
# recombinant human PR LBD = target: T2, recombinant human PR LBD (Homo sapiens, UniProt P06401); experiment: In vitro ligand competitor assay; assay type: binding
# T2 sequence (P06401 679-913 limits assumed): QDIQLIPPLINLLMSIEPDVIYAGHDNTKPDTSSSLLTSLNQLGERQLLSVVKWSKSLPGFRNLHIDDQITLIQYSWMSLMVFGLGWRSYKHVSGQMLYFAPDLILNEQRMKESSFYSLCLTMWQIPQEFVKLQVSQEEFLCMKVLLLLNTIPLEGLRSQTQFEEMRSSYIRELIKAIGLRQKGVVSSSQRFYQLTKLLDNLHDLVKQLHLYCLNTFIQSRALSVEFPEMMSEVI
# [2] = tested on: seminal vesicles (androgen-dependent tissue); experiment: In vivo effects on androgen-dependent tissue in intact male mice; set-up: species or system NOD-SCID mice; settings: mature male mice, 10 mg/kg oral gavage, 13 daily doses
# LNCaP cells = experiment: Viability assay, LNCaP; assay type: cell-based, human; settings: treated for 4 days
# [3] = tested on: PSA, FKBP5 and TMPRSS2 transcripts; experiment: qRT-PCR of androgen-regulated genes in VCaP cells; assay type: cell-based; settings: 10 µM, 1 nM R1881, 16 hours
# [4] = target: T3, full-length human progesterone receptor-beta (PRβ) (Homo sapiens, UniProt P06401); experiment: PR transcriptional activity, PRE luciferase reporter in LNCaP cells; assay type: cell-based; settings: 10 µM, 10 nM 4-pregnene-3,20 dione, 48 hours
# T3 sequence (P06401 1-933): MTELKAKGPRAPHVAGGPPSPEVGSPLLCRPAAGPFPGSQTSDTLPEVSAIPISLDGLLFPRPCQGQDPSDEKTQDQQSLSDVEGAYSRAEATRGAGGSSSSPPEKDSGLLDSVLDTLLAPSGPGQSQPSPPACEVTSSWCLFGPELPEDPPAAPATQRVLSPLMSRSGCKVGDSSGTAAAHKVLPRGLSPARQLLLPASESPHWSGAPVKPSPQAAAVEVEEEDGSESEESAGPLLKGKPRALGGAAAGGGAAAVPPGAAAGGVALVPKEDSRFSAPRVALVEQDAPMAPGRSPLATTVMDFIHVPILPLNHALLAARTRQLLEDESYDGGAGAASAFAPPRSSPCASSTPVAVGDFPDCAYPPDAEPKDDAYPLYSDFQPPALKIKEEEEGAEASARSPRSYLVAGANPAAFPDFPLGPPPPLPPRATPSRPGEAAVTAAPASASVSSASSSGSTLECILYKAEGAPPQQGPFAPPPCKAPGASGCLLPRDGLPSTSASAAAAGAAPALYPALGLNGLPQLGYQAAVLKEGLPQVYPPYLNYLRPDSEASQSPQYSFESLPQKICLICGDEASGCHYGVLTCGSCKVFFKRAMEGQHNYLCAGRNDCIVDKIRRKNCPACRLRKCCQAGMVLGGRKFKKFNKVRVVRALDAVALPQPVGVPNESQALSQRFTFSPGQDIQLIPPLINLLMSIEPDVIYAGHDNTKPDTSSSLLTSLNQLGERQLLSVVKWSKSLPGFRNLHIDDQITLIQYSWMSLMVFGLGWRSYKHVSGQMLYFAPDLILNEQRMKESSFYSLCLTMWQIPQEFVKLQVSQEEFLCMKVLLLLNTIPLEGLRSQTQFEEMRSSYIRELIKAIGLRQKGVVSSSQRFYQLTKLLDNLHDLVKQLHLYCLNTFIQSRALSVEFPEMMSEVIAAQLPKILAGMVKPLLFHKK
# [5] = tested on: PC3 human prostate cancer cells; experiment: Proliferation of PC3 cells; assay type: cell-based; settings: PC3, 0.1 nM R1881
# [6] = tested on: LNCaP human prostate cancer cells; experiment: Androgen-dependent proliferation of LNCaP cells; assay type: cell-based; settings: 0.1 nM R1881
# [7] = target: recombinant human full-length ERα (Homo sapiens, UniProt P03372); experiment: In vitro ligand competitor assay; assay type: binding; settings: fluorescence polarization competitor assay
# recombinant human full-length ERα, sequence (P03372 whole entry, the tested form may be a part): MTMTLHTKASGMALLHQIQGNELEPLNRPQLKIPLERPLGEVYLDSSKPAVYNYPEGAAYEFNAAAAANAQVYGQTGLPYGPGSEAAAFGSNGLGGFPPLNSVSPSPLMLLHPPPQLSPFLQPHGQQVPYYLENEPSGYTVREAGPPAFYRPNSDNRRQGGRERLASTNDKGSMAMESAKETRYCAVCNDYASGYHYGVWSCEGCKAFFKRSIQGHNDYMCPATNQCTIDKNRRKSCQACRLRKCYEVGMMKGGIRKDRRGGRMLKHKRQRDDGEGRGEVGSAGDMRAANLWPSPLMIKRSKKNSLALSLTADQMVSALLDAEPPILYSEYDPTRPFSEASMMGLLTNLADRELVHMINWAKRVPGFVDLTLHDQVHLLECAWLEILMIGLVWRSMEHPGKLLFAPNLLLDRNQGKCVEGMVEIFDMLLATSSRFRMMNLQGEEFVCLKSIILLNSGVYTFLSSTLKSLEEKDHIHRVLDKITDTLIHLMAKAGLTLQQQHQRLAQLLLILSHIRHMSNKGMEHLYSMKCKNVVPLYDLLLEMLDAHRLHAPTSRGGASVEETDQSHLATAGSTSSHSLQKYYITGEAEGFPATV
SMILES,effect on transcriptional activity of GR induced by dexamethasone [1],cytotoxicity (viability assay) (VCaP cells),effect on cell growth/viability (LNCaP95 cells),cytotoxicity (viability assay) (PC3 cells),EC50 (recombinant human PR LBD),testes weight [2],cytotoxicity (viability assay) (LNCaP cells),effect on androgen-induced levels of PSA transcript [3],effect on androgen-induced levels of transcript for FKBP5 and TMPRSS2 [3],effect on PR transcriptional activity induced by Preg [4],effect of androgen on proliferation [5],effect of androgen on proliferation [6],competition with fluoromone for ERα [7]
"CC(O)(CS(=O)(=O)c1ccc(F)cc1)C(=O)Nc1ccc(C#N)c(C(F)(F)F)c1 (stereo not drawn) [BIC, bicalutamide]",had no effect,no indication of cytotoxicity,not altered,no indication of cytotoxicity,5.1 µM,no effect on the weight of testis,no indication of cytotoxicity,neither BIC or any of the diterpenoids significantly reduced these levels,significantly blocked,inhibited,–,–,–
C[C@]1(O)CC[C@H]2[C@@H]3CCC4=CC(=O)CCC4=C3C=C[C@@]21C [R1881],–,–,not altered,–,–,–,–,–,–,–,did not alter their proliferation,led to increased proliferation,"none of the AR ligands (R1881, BIC and the diterpenoids) were efficient in competing"
CC#C[C@]1(O)CC[C@H]2[C@@H]3CCC4=CC(=O)CCC4=C3[C@@H](c3ccc(N(C)C)cc3)C[C@@]21C [RU486],–,–,–,–,–,–,–,–,–,inhibited,–,–,–
